Test results from patent US20260069626A1, “Compositions and Methods to Protect and Enhance Structural and Functional Integrity of the Intestinal Glycocalyx” (Calroy Health Sciences, LLC, priority 2023, published 2026).

Assays:
[1] = tested on: mouse intestinal glycocalyx; experiment: DSS-treated mice: WGA-FITC immunofluorescence of colon glycocalyx (Example 3); type: in vivo; details: for Average Florescence Intensity of Mouse Intestinal Glycocalyx after WGA-FITC Staining (AVI): oral mg/kg/day per Table IV: single agents 100, 3′-SL + 6′-SL 100 each, HMOs 50 each + COS 100; for mouse intestinal glycocalyx (FIG. 8, FIG. 9): oral, doses of Table IV
Protocol: Male C57BL/6J mice (18-20 g) of 6 weeks old were housed under controlled conditions with a constant temperature (23±2° C.), stable humidity, and a 12-hour light/dark cycle. After a one-week acclimatization period, the mice were randomly divided into 7 groups, with 5 mice per group: Control, DSS, DSS+3′-SL, DSS+6′-SL, DSS+5-ASA, DSS+6′-SL+3′-SL, and DSS+HMOs+COS. The control group received sterile water for 19 days. The DSS group was given 4% (wt/vol) DSS in their drinking water from days 8-14, with daily oral gavage of sterile water for 11 days. The other groups were treated with 3% DSS in their drinking water from days 8-14, along with oral administration of various functional glycans (mg/kg/day) of COS up to the 19th day (See Experimental Design in Table III). The DSS solution was replaced every two days to maintain its bioactivity. Mouse body weight, stool consistency, and rectal bleeding were monitored daily, alongside observations of coat sheen, mental state, and activity levels.
Immunofluorescence staining of mouse colon tissue was performed using the following procedure. Paraffin sections were prepared from the distal colon, 1 cm from the anus. Deparaffinization and rehydration were performed with xylene and ethanol, as follows: xylene (5 min×2), 100% ethanol (5 min×2), 90% ethanol (5 min×1), 80% ethanol (5 min×1), 70% ethanol (5 min×1), and deionized water (10 s). Endogenous peroxidase activity was quenched with 0.75% hydrogen peroxide for 10 minutes, followed by PBS washes. Antigen retrieval was performed by boiling the sections in 0.01 mol/L sodium citrate for 30 minutes. For WGA staining, sections were incubated overnight at 4° C. with 0.1 μg/μL FITC-WGA in PBS (40 μL per sample). After washing with PBS, nuclei were counterstained with DAPI and sections were mounted with an anti-fade medium. The stained sections were visualized under a fluorescence microscope, and the colonic mucosal glycocalyx was quantified using ImageJ software.

[2] = tested on: C57BL/6J mice treated with DSS; experiment: DSS-treated mice: body weight and Disease Activity Index (Example 3); type: in vivo, mouse; details: oral, doses of Table IV
Protocol: Male C57BL/6J mice (18-20 g) of 6 weeks old were housed under controlled conditions with a constant temperature (23±2° C.), stable humidity, and a 12-hour light/dark cycle. After a one-week acclimatization period, the mice were randomly divided into 7 groups, with 5 mice per group: Control, DSS, DSS+3′-SL, DSS+6′-SL, DSS+5-ASA, DSS+6′-SL+3′-SL, and DSS+HMOs+COS. The control group received sterile water for 19 days. The DSS group was given 4% (wt/vol) DSS in their drinking water from days 8-14, with daily oral gavage of sterile water for 11 days. […] Mouse body weight, stool consistency, and rectal bleeding were monitored daily, alongside observations of coat sheen, mental state, and activity levels. The Disease Activity Index (DAI) was used to assess colitis severity, calculated as the mean of the scores for weight loss, stool consistency, and rectal bleeding as described below. Mice were weighed daily at the same time, with the percentage of weight loss compared to the end of the acclimation period: <1% scored 0; 1-5% scored 1; 5-10% scored 2; 10-20% scored 3; >20% scored 4. Stool consistency was also evaluated daily: normal stool scored 0; soft but formed stool scored 1; paste-like stool scored 2; liquid stool scored 3. […] The DAI was calculated as the average of these three scores. […]

[3] = tested on: Caco-2 intestinal epithelial cell glycocalyx; experiment: Prevention/repair of DSS damage to Caco-2 glycocalyx, microfluidic chip, WGA-FITC (Example 2); type: cell-based; details: 2% DSS, single agents 200 μg/ml, 6′-SL and 3′-SL each 100 μg/ml, 100 μg/ml COS with 50 μg/ml each of 6′-SL, 2′-FL
Protocol: Using the same microfluidic chip model in Example 1, different functional glycans of RS, COS and hMO, and some combinations were evaluated for their capability to prevent and repair the damages of Caco-2 intestinal epithelial cell glycocalyx caused by DSS. […] In addition to DSS, a positive control of 5-aminosalicylic acid (5-ASA), RS, COS, different hMOS, and a combination of hMOs and COS at different concentrations in phosphate-buffered saline (PBS) with water were introduced into microfluidic chips for testing their effects on the intestinal glycocalyx in the presence of DSS.
FIG. 1 depicts the images of the intestinal epithelial cell glycocalyx and nucleus stained by WGA-FITC individually and together. […] Briefly, 2% DSS caused a significant decrease of intestinal glycocalyx as measured by WGA fluorescence intensity.

Compound | Average Florescence Intensity of Mouse Intestinal Glycocalyx after WGA-FITC Staining (AVI) [1] | mouse intestinal glycocalyx (FIG. 8, FIG. 9) [1] | DAI at the end of the study compared to DSS only (FIG. 6) [2] | body weight at the end of the study compared to DSS only (FIG. 4) [2] | damage of the intestinal glycocalyx caused by DSS (WGA fluorescence intensity, FIG. 1-2) [3]
CC(=O)N[C@H]1[C@H]([C@H](O)[C@H](O)CO)O[C@@](O[C@H]2[C@@H](O)[C@@H](CO)O[C@@H](O[C@H]3[C@H](O)[C@@H](O)C(O)O[C@@H]3CO)[C@@H]2O)(C(=O)O)C[C@@H]1O (stereo partly drawn) [3′-SL, 3′-sialyllactose] | 2.45 | increased | – | – | –
Nc1ccc(O)c(C(=O)O)c1 [5-ASA, 5-aminosalicylic acid, reference compound] | 2.56 | – | significantly reduced | significant increase | significantly prevented the damage
CC(=O)N[C@H]1[C@H]([C@H](O)[C@H](O)CO)O[C@@](OC[C@H]2O[C@@H](O[C@H]3[C@H](O)[C@@H](O)[C@H](O)O[C@@H]3CO)[C@H](O)[C@@H](O)[C@H]2O)(C(=O)O)C[C@@H]1O [6′-SL, 6′-sialyllactose] | 2.75 | increased | – | – | significantly prevented the damage
